According to ChEMBL document CHEMBL4627327, “Antibacterial activity of singly and doubly modified salinomycin derivatives” (Bioorg Med Chem Lett, 2020):
In brackets after ≈: the same amount, converted by molar mass. Activity calls are given as the source filed them. The calls are words filed in the database; no cut-off is given here.

Columns and labels:
Pseudomonas aeruginosa [1] = test: Antibacterial activity against Pseudomonas aeruginosa ATCC 15442 assessed as bacterial growth inhibition measured after 18 hrs by CLSI protocol based two-fold serial microdilution method; assay type: functional, organism-based
Pseudomonas aeruginosa [2] = test: Antibacterial activity against Pseudomonas aeruginosa ATCC 27853 assessed as bacterial growth inhibition measured after 18 hrs by CLSI protocol based two-fold serial microdilution method; assay type: functional, organism-based
Escherichia coli [3] = test: Antibacterial activity against Escherichia coli NCTC 8196 assessed as bacterial growth inhibition measured after 18 hrs by CLSI protocol based two-fold serial microdilution method; assay type: functional, organism-based
Escherichia coli [4] = test: Antibacterial activity against Escherichia coli ATCC 25922 assessed as bacterial growth inhibition measured after 18 hrs by CLSI protocol based two-fold serial microdilution method; assay type: functional, organism-based
[5] = test system: Staphylococcus epidermidis; test: Antibacterial activity against methicillin-resistant Staphylococcus epidermidis isolate 574 assessed as bacterial growth inhibition measured after 18 hrs by CLSI protocol based two-fold serial microdilution method; assay type: functional; details: isolate 574, 18 h
[6] = test system: Staphylococcus epidermidis; test: Antibacterial activity against methicillin-resistant Staphylococcus epidermidis isolate 602 assessed as bacterial growth inhibition measured after 18 hrs by CLSI protocol based two-fold serial microdilution method; assay type: functional; details: isolate 602, 18 h
[7] = test system: Staphylococcus epidermidis; test: Antibacterial activity against methicillin-resistant Staphylococcus epidermidis isolate 603 assessed as bacterial growth inhibition measured after 18 hrs by CLSI protocol based two-fold serial microdilution method; assay type: functional; details: isolate 603, 18 h
[8] = test system: Staphylococcus epidermidis; test: Antibacterial activity against methicillin-resistant Staphylococcus epidermidis isolate 609 assessed as bacterial growth inhibition measured after 18 hrs by CLSI protocol based two-fold serial microdilution method; assay type: functional; details: isolate 609, 18 h
[9] = test system: Staphylococcus epidermidis; test: Antibacterial activity against methicillin-resistant Staphylococcus epidermidis isolate 610 assessed as bacterial growth inhibition measured after 18 hrs by CLSI protocol based two-fold serial microdilution method; assay type: functional; details: isolate 610, 18 h
[10] = test system: Staphylococcus epidermidis; test: Antibacterial activity against methicillin-resistant Staphylococcus epidermidis isolate 654 assessed as bacterial growth inhibition measured after 18 hrs by CLSI protocol based two-fold serial microdilution method; assay type: functional; details: isolate 654, 18 h
[11] = test system: Staphylococcus epidermidis; test: Antibacterial activity against methicillin-resistant Staphylococcus epidermidis isolate 660 assessed as bacterial growth inhibition measured after 18 hrs by CLSI protocol based two-fold serial microdilution method; assay type: functional; details: isolate 660, 18 h
Staphylococcus aureus [12] = test: Antibacterial activity against methicillin-resistant Staphylococcus aureus isolate 583 assessed as bacterial growth inhibition measured after 18 hrs by CLSI protocol based two-fold serial microdilution method; assay type: functional; details: isolate 583, 18 h
Staphylococcus aureus [13] = test: Antibacterial activity against methicillin-resistant Staphylococcus aureus isolate 584 assessed as bacterial growth inhibition measured after 18 hrs by CLSI protocol based two-fold serial microdilution method; assay type: functional; details: isolate 584, 18 h
Staphylococcus aureus [14] = test: Antibacterial activity against methicillin-resistant Staphylococcus aureus isolate 612 assessed as bacterial growth inhibition measured after 18 hrs by CLSI protocol based two-fold serial microdilution method; assay type: functional; details: isolate 612, 18 h
Staphylococcus aureus [15] = test: Antibacterial activity against methicillin-resistant Staphylococcus aureus isolate 620 assessed as bacterial growth inhibition measured after 18 hrs by CLSI protocol based two-fold serial microdilution method; assay type: functional; details: isolate 620, 18 h
Staphylococcus aureus [16] = test: Antibacterial activity against methicillin-resistant Staphylococcus aureus isolate 621 assessed as bacterial growth inhibition measured after 18 hrs by CLSI protocol based two-fold serial microdilution method; assay type: functional; details: isolate 621, 18 h
Staphylococcus aureus [17] = test: Antibacterial activity against methicillin-resistant Staphylococcus aureus isolate 750 assessed as bacterial growth inhibition measured after 18 hrs by CLSI protocol based two-fold serial microdilution method; assay type: functional; details: isolate 750, 18 h
Staphylococcus aureus [18] = test: Antibacterial activity against methicillin-resistant Staphylococcus aureus isolate 770 assessed as bacterial growth inhibition measured after 18 hrs by CLSI protocol based two-fold serial microdilution method; assay type: functional; details: isolate 770, 18 h
[19] = test system: Staphylococcus epidermidis; test: Inhibition of biofilm formation in Staphylococcus epidermidis ATCC 35984 at 1 to 8 ug/ml measured after 24 hrs by crystal violet staining based assay; assay type: functional, organism-based
[20] = test system: Staphylococcus epidermidis; test: Inhibition of biofilm formation in Staphylococcus epidermidis ATCC 12228 at 1 to 8 ug/ml measured after 24 hrs by crystal violet staining based assay; assay type: functional, organism-based
[21] = Genotoxicity in rec negative Bacillus subtilis M45 assessed as diameter of inhibition zone at 256 ug measured after 24 hrs by rec-assay; assay type: toxicity; details: in vivo
[22] = Genotoxicity in rec-positive Bacillus subtilis H17 assessed as diameter of inhibition zone at 256 ug measured after 24 hrs by rec-assay; assay type: toxicity; details: in vivo

CC[C@@H](C(=O)[C@@H](C)[C@@H](O)[C@H](C)[C@@H]1O[C@@H]([C@@H](CC)C(=O)OCC(F)(F)F)CC[C@@H]1C)[C@H]1O[C@]2(C=C[C@@H](O)[C@]3(CC[C@@](C)([C@H]4CC[C@](O)(CC)[C@H](C)O4)O3)O2)[C@H](C)C[C@@H]1C
Activity (Pseudomonas aeruginosa [1]): inactive
Activity (Pseudomonas aeruginosa [2]): inactive
Activity (Escherichia coli [3]): inactive
Activity (Escherichia coli [4]): inactive

C#CCNC(=O)[C@H](CC)[C@H]1CC[C@H](C)[C@H]([C@@H](C)[C@H](O)[C@H](C)C(=O)[C@H](CC)[C@H]2O[C@]3(C=C[C@@H](O)[C@]4(CC[C@@](C)([C@H]5CC[C@](O)(CC)[C@H](C)O5)O4)O3)[C@H](C)C[C@@H]2C)O1
Activity (Pseudomonas aeruginosa [1]): inactive
Activity (Pseudomonas aeruginosa [2]): inactive
Activity (Escherichia coli [3]): inactive
Activity (Escherichia coli [4]): inactive

CC[C@@H](C(=O)[C@@H](C)[C@@H](O)[C@H](C)[C@@H]1O[C@@H]([C@@H](CC)C(=O)O)CC[C@@H]1C)[C@H]1O[C@]2(C=CC(=O)[C@]3(CC[C@@](C)([C@H]4CC[C@](O)(CC)[C@H](C)O4)O3)O2)[C@H](C)C[C@@H]1C
Activity (Pseudomonas aeruginosa [1]): inactive
Activity (Pseudomonas aeruginosa [2]): inactive
Activity (Escherichia coli [3]): inactive
Activity (Escherichia coli [4]): inactive
MIC [5]: 1.34 µM (≈ 1 µg/mL)
MIC [6]: 2.67 µM (≈ 2 µg/mL)
MIC [7]: 2.67 µM (≈ 2 µg/mL)
MIC [8]: 2.67 µM (≈ 2 µg/mL)
MIC [9]: 2.67 µM (≈ 2 µg/mL)
MIC [10]: 5.34 µM (≈ 4 µg/mL)
MIC [11]: 5.34 µM (≈ 4 µg/mL)
MIC (Staphylococcus aureus [12]): 2.67 µM (≈ 2 µg/mL)
MIC (Staphylococcus aureus [13]): 2.67 µM (≈ 2 µg/mL)
MIC (Staphylococcus aureus [14]): 2.67 µM (≈ 2 µg/mL)
MIC (Staphylococcus aureus [15]): 2.67 µM (≈ 2 µg/mL)
MIC (Staphylococcus aureus [16]): 2.67 µM (≈ 2 µg/mL)
MIC (Staphylococcus aureus [17]): 2.67 µM (≈ 2 µg/mL)
MIC (Staphylococcus aureus [18]): 2.67 µM (≈ 2 µg/mL)
inhibition [19]: Active
inhibition [20]: Active
diameter of the inhibition zone (DIZ) [21]: 34 mm
diameter of the inhibition zone (DIZ) [22]: 32 mm

CC[C@@H](C(=O)[C@@H](C)[C@@H](O)[C@H](C)[C@@H]1O[C@@H]([C@@H](CC)C(=O)NCCc2ccc(F)cc2)CC[C@@H]1C)[C@H]1O[C@]2(C=CC(=O)[C@]3(CC[C@@](C)([C@H]4CC[C@](O)(CC)[C@H](C)O4)O3)O2)[C@H](C)C[C@@H]1C
Activity (Pseudomonas aeruginosa [1]): inactive
Activity (Pseudomonas aeruginosa [2]): inactive
Activity (Escherichia coli [3]): inactive
Activity (Escherichia coli [4]): inactive

CC[C@@H](C(=O)[C@@H](C)[C@@H](O)[C@H](C)[C@@H]1O[C@@H]([C@@H](CC)C(=O)OCC(F)(F)F)CC[C@@H]1C)[C@H]1O[C@]2(C=CC(=O)[C@]3(CC[C@@](C)([C@H]4CC[C@](O)(CC)[C@H](C)O4)O3)O2)[C@H](C)C[C@@H]1C
Activity (Pseudomonas aeruginosa [1]): inactive
Activity (Pseudomonas aeruginosa [2]): inactive
Activity (Escherichia coli [3]): inactive
Activity (Escherichia coli [4]): inactive

C#CCOC(=O)[C@H](CC)[C@H]1CC[C@H](C)[C@H]([C@@H](C)[C@H](O)[C@H](C)C(=O)[C@H](CC)[C@H]2O[C@]3(C=CC(=O)[C@]4(CC[C@@](C)([C@H]5CC[C@](O)(CC)[C@H](C)O5)O4)O3)[C@H](C)C[C@@H]2C)O1
Activity (Pseudomonas aeruginosa [1]): inactive
Activity (Pseudomonas aeruginosa [2]): inactive
Activity (Escherichia coli [3]): inactive
Activity (Escherichia coli [4]): inactive

CC[C@@H](C(=O)[C@@H](C)[C@@H](O)[C@H](C)[C@@H]1O[C@@H]([C@@H](CC)C(=O)O)CC[C@@H]1C)[C@H]1O[C@]2(C=C[C@@H](O)[C@]3(CC[C@@](C)([C@H]4CC[C@](O)(CC)[C@H](C)O4)O3)O2)[C@H](C)C[C@@H]1C [SALINOMYCIN]
Activity (Pseudomonas aeruginosa [1]): inactive
Activity (Pseudomonas aeruginosa [2]): inactive
Activity (Escherichia coli [3]): inactive
Activity (Escherichia coli [4]): inactive
MIC [5]: 1.33 µM (≈ 0.999 µg/mL)
MIC [6]: 1.33 µM (≈ 0.999 µg/mL)
MIC [7]: 2.66 µM (≈ 2 µg/mL)
MIC [8]: 1.33 µM (≈ 0.999 µg/mL)
MIC [9]: 1.33 µM (≈ 0.999 µg/mL)
MIC [10]: 5.33 µM (≈ 4 µg/mL)
MIC [11]: 5.33 µM (≈ 4 µg/mL)
MIC (Staphylococcus aureus [12]): 2.66 µM (≈ 2 µg/mL)
MIC (Staphylococcus aureus [13]): 2.66 µM (≈ 2 µg/mL)
MIC (Staphylococcus aureus [14]): 1.33 µM (≈ 0.999 µg/mL)
MIC (Staphylococcus aureus [15]): 1.33 µM (≈ 0.999 µg/mL)
MIC (Staphylococcus aureus [16]): 2.66 µM (≈ 2 µg/mL)
MIC (Staphylococcus aureus [17]): 1.33 µM (≈ 0.999 µg/mL)
MIC (Staphylococcus aureus [18]): 2.66 µM (≈ 2 µg/mL)
diameter of the inhibition zone (DIZ) [21]: 34 mm
diameter of the inhibition zone (DIZ) [22]: 32 mm

CC[C@@H](C(=O)[C@@H](C)[C@@H](O)[C@H](C)[C@@H]1O[C@@H]([C@@H](CC)C(=O)NCC(F)(F)F)CC[C@@H]1C)[C@H]1O[C@]2(C=C[C@@H](O)[C@]3(CC[C@@](C)([C@H]4CC[C@](O)(CC)[C@H](C)O4)O3)O2)[C@H](C)C[C@@H]1C
Activity (Pseudomonas aeruginosa [1]): inactive
Activity (Pseudomonas aeruginosa [2]): inactive
Activity (Escherichia coli [3]): inactive
Activity (Escherichia coli [4]): inactive
